In US6534523B1, “Hepatitis C inhibitor tri-peptides” (Boehringer Ingelheim (Canada) Ltd., priority 1998, dated 2003):

Biological target: HCV NS3 protease (UniProt P26663)
Assay type: biochemical, HCV genotype 1b
Set-up: rows headed: IC50 (μM); IC50 (μM)
Conditions: Table 7
Procedure: Recombinant HCV NS3 Protease/NS4A Cofactor Peptide Radiometric Assay
The enzyme was cloned, expressed and prepared according to the protocol described in Example 36. The enzyme was stored at −80° C., thawed on ice and diluted just prior to use in the assay buffer containing the NS4A cofactor peptide.
The substrate used for the NS3 protease/NS4A cofactor peptide radiometric assay, DDIVPC-SMSYTW, is cleaved between the cysteine and the serine residues by the enzyme. The sequence DDIVPC-SMSYTW corresponds to the NS5A/NS5B natural cleavage site in which the cysteine residue in P2 has been substituted for a proline. […] (molar ratio enzyme:cofactor 1:100) in the absence or presence of inhibitors. The separation of substrate from products is performed by adding avidin-coated agarose beads to the assay mixture followed by filtration. The amount of SMS[^125I-Y]TW product found in the filtrate allows for the calculation of the percentage of substrate conversion and of the percentage of inhibition.
The enzymatic reaction was initiated by the addition of the enzyme/NS4A peptide solution and the assay mixture was incubated for 40 min at 23° C. under gentle agitation. Ten (10) μL of 0.5N NaOH were added and 10 μL 1 M MES, pH 5.8 were added to quench the enzymatic reaction.
A non-linear curve fit with the Hill model was applied to the inhibition-concentration data, and the 50% effective concentration (IC50) was calculated by the use of SAS software (Statistical Software System; SAS Institute, Inc. Cary, N.C.). […]
The NS2-NS5B-3′ non coding region was cloned by RT-PCR into the pCR®3 vector (Invitrogen) using RNA extracted from the serum of an HCV genotype 1b infected individual (provided by Dr. Bernard Willems, Hôpital St-Luc, Montréal, Québec, Canada). The NS3-NS4A DNA region was then subcloned by PCR into the pFastBac™ HTa baculovirus expression vector (Gibco/BRL). The vector sequence includes a region encoding a 28-residue N-terminal sequence which contains a hexahistidine tag. The Bac-to-Bac™ baculovirus expression system (Gibco/BRL) was used to produce the recombinant baculovirus. The full length mature NS3 and NS4A heterodimer protein (His-NS3-NS4AFL) was expressed by infecting 10^6 Sf21 cells/mL with the recombinant baculovirus at a multiplicity of infection of 0.1-0.2 at 27° C. The infected culture was harvested 48 to 64 h later by centrifugation at 4° C. The cell pellet was homogenized in 50 mM NaPO4, pH 7.5, 40% glycerol (w/v), 2 mM β-mercaptoethanol, in presence of a cocktail of protease inhibitors. His-NS3-NS4AFL was then extracted from the cell lysate with 1.5% NP-40, 0.5% Triton X-100, 0.5M NaCl, and a DNase treatment. After ultracentrifugation, the soluble extract was diluted 4-fold and bound on a Pharmacia Hi-Trap Ni-chelating column. […] The His-NS3-NS4AFL was stored at −80° C. in 50 mM sodium phosphate, pH 7.5, 10% (w/v) glycerol, 0.5 M NaCl, 0.25 M imidazole, 0.1% NP-40. It was thawed on ice and diluted just prior to use. The protease activity of His-NS3-NS4AFL was assayed in 50 mM Tris-HCl, pH 8.0, 0.25 M sodium citrate, 0.01% (w/v) n-dodecyl-β-D-maltoside, 1 mM TCEP. Five (5) μM of the internally quenched substrate anthranilyl-DDIVPAbu[C(O)—O]-AMY(3-NO2)TW-OH in presence of various concentrations of inhibitor were incubated with 1.5 nM of His-NS3-NS4AFL for 45 min at 23° C. […] The reaction was terminated with the addition of 1M MES, pH 5.8. Fluorescence of the N-terminal product was monitored on a Perkin-Elmer LS-50B fluorometer equipped with a 96-well plate reader (excitation wavelength: 325 nm; emission wavelength: 423 nm).
The following tables list compounds representative of the invention.

Chain of HCV NS3 protease (P26663 1027-1206, other chains not shown): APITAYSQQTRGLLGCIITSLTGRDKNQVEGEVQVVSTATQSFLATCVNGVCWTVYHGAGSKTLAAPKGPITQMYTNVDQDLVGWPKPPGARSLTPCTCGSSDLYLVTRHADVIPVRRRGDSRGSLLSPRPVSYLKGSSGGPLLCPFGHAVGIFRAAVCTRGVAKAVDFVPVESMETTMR

SMILES | IC50 [nM]
C=CC1CC1(NC(=O)C1CC(Oc2cc(C3CCCCC3)nc3cc(OC)ccc23)CN1C(=O)C(NC(=O)OC(C)(C)C)C(C)(C)C)C(=O)O (stereo not shown) [compound 737] | 110

Same assay, conditions: Table 8

SMILES | IC50 [nM]
C=CC1CC1(NC(=O)C1CC(Oc2cc(-c3ccccc3)nc3cc(OC)ccc23)CN1C(=O)C(NC(=O)C(O)C1CCCCC1)C(C)(C)C)C(=O)O (stereo not shown) [compound 802] | 24
C=CC1CC1(NC(=O)C1CC(Oc2cc(-c3ccccc3)nc3cc(OC)ccc23)CN1C(=O)C(NC(=O)CC1CCCCC1)C(C)(C)C)C(=O)O (stereo not shown) [compound 804] | 32
C=CC1CC1(NC(=O)C1CC(Oc2cc(-c3ccccc3)nc3cc(OC)ccc23)CN1C(=O)C(NC(C)=O)C(C)(C)C)C(=O)O (stereo not shown) [compound 805] | 83
C=CC1CC1(NC(=O)C1CC(Oc2cc(-c3ccccc3)nc3cc(OC)ccc23)CN1C(=O)C(NC(=O)C(C)C1CCCCC1)C(C)(C)C)C(=O)O (stereo not shown) [compound 806] | 36
C=CC1CC1(NC(=O)C1CC(Oc2cc(-c3ccccc3)nc3cc(OC)ccc23)CN1C(=O)C(NC(=O)NC(C)C)C(C)(C)C)C(=O)O (stereo not shown) [compound 807] | 10
C=CC1CC1(NC(=O)C1CC(Oc2cc(-c3ccccc3)nc3cc(OC)ccc23)CN1C(=O)C(NC(=O)NC1CCCCC1)C(C)(C)C)C(=O)O (stereo not shown) [compound 808] | 8
C=CC1CC1(NC(=O)C1CC(Oc2cc(-c3ccccc3)nc3cc(OC)ccc23)CN1C(=O)C(Nc1ccccc1)C(C)C)C(=O)O (stereo not shown) [compound 809] | 71
C=CC1CC1(NC(=O)C1CC(Oc2cc(-c3ccccc3)nc3cc(OC)ccc23)CN1C(=O)C(NC(=O)COc1c(C)cccc1C)C(C)(C)C)C(=O)O (stereo not shown) [compound 810] | 450
C=CC1CC1(NC(=O)C1CC(Oc2cc(-c3ccc(Cl)cc3)nc3cc(OC)ccc23)CN1C(=O)C(NC(=O)OC(C)(C)C)C(C)(C)C)C(=O)O (stereo not shown) [compound 811] | 40
C=CC1CC1(NC(=O)C1CC(Oc2cc(-c3ccccc3)nc3cc(OC)ccc23)CN1C(=O)C(NC(=O)Nc1ccccc1)C(C)(C)C)C(=O)O (stereo not shown) [compound 812] | 13
C=CC1CC1(NC(=O)C1CC(Oc2cc(-c3ccccc3)nc3cc(OC)ccc23)CN1C(=O)C(NC(=S)NC(C)(C)C)C(C)(C)C)C(=O)O (stereo not shown) [compound 813] | 20
C=CC1CC1(NC(=O)C1CC(Oc2cc(-c3ccccc3Cl)nc3cc(OC)ccc23)CN1C(=O)C(NC(=O)OC(C)(C)C)C(C)(C)C)C(=O)O (stereo not shown) [compound 814] | 130
C=CC1CC1(NC(=O)C1CC(Oc2cc(-c3cccc(Cl)c3)nc3cc(OC)ccc23)CN1C(=O)C(NC(=O)OC(C)(C)C)C(C)(C)C)C(=O)O (stereo not shown) [compound 815] | 160
C=CC1CC1(NC(=O)C1CC(Oc2cc(-c3ccccc3)nc3cc(OC)ccc23)CN1C(=O)C(NC(=O)NCC)C(C)(C)C)C(=O)O (stereo not shown) [compound 816] | 32
C=CC1CC1(NC(=O)C1CC(Oc2cc(-c3ccccc3)nc3cc(OC)ccc23)CN1C(=O)C(NC(=O)NCc1ccccc1)C(C)(C)C)C(=O)O (stereo not shown) [compound 817] | 17
C=CC1CC1(NC(=O)C1CC(Oc2cc(-c3ccccc3)nc3cc(OC)ccc23)CN1C(=O)C(NC(=S)NC1CCCCC1)C(C)(C)C)C(=O)O (stereo not shown) [compound 818] | 19
C=CC1CC1(NC(=O)C1CC(Oc2cc(-c3ccccc3)nc3cc(OC)ccc23)CN1C(=O)C(Nc1ccc([N+](=O)[O-])c(C(F)(F)F)c1)C(C)C)C(=O)O (stereo not shown) [compound 819] | 320
C=CC1CC1(NC(=O)C1CC(Oc2cc(-c3ccccc3)nc3cc(OC)ccc23)CN1C(=O)C(Nc1ccc(N)c(C(F)(F)F)c1)C(C)C)C(=O)O (stereo not shown) [compound 820] | 63
C=CC1CC1(NC(=O)C1CC(Oc2cc(-c3ccccc3)nc3cc(OC)ccc23)CN1C(=O)C(Nc1cccc(OC)c1)C(C)C)C(=O)O (stereo not shown) [compound 821] | 120
C=CC1CC1(NC(=O)C1CC(Oc2cc(-c3ccccc3)nc3cc(OC)ccc23)CN1C(=O)C(Nc1ccc(C)cc1)C(C)C)C(=O)O (stereo not shown) [compound 822] | 50

SMILES | IC50 [nM]
C=CC1CC1(NC(=O)C1CC(Oc2cc(-c3ccccc3OC)nc3cc(OC)ccc23)CN1C(=O)C(NC(=O)OC(C)(C)C)C(C)(C)C)C(=O)O (stereo not shown) [compound 823] | 107
C=CC1CC1(NC(=O)C1CC(Oc2cc(-c3ccccc3)nc3cc(OC)ccc23)CN1C(=O)C(NCc1ccccc1)C(C)C)C(=O)O (stereo not shown) [compound 826] | 780
C=CC1CC1(NC(=O)C1CC(Oc2cc(-c3ccccc3)nc3cc(OC)ccc23)CN1C(=O)C(NC(=O)NN(C)C)C(C)(C)C)C(=O)O (stereo not shown) [compound 827] | 270
C=CC1CC1(NC(=O)C1CC(Oc2cc(-c3ccccc3)nc3cc(OC)ccc23)CN1C(=O)C(Nc1cccc(C(C)=O)c1)C(C)C)C(=O)O (stereo not shown) [compound 828] | 100
C=CC1CC1(NC(=O)C1CC(Oc2cc(-c3ccccc3)nc3cc(OC)ccc23)CN1C(=O)C(NC(=O)Nc1c(C)cccc1C)C(C)(C)C)C(=O)O (stereo not shown) [compound 829] | 57
C=CC1CC1(NC(=O)C1CC(Oc2cc(-c3ccccc3)nc3cc(OC)ccc23)CN1C(=O)C(NC(=O)OC)C(C)(C)C)C(=O)O (stereo not shown) [compound 830] | 111
C=CC1CC1(NC(=O)C1CC(Oc2cc(-c3ccccc3)nc3cc(OC)ccc23)CN1C(=O)C(NC(=O)NC(C)C(N)=O)C(C)(C)C)C(=O)O (stereo not shown) [compound 831] | 15
C=CC1CC1(NC(=O)C1CC(Oc2cc(-c3ccccc3)nc3cc(OC)ccc23)CN1C(=O)C(NC(=O)NC(C)(C)C(N)=O)C(C)(C)C)C(=O)O (stereo not shown) [compound 833] | 15
C=CC1CC1(NC(=O)C1CC(Oc2cc(-c3ccccc3)nc3cc(OC)ccc23)CN1C(=O)C(Nc1cccc(C)c1)C(C)C)C(=O)O (stereo not shown) [compound 834] | 74
C=CC1CC1(NC(=O)C1CC(Oc2cc(-c3ccccc3)nc3cc(OC)ccc23)CN1C(=O)C(NC(=O)NC(C)(C)CO)C(C)(C)C)C(=O)O (stereo not shown) [compound 835] | 7
C=CC1CC1(NC(=O)C1CC(Oc2cc(-c3ccccc3)nc3cc(OC)ccc23)CN1C(=O)C(Nc1ccc([N+](=O)[O-])cc1)C(C)C)C(=O)O (stereo not shown) [compound 836] | 130
C=CC1CC1(NC(=O)C1CC(Oc2cc(-c3ccccc3)nc3cc(OC)ccc23)CN1C(=O)C(Nc1ccc(Cl)cc1)C(C)C)C(=O)O (stereo not shown) [compound 837] | 98
C=CC1CC1(NC(=O)C1CC(Oc2cc(-c3ccccc3)nc3cc(OC)ccc23)CN1C(=O)C(Nc1cccc(CO)c1)C(C)C)C(=O)O (stereo not shown) [compound 838] | 94
C=CC1CC1(NC(=O)C1CC(Oc2cc(-c3ccccc3)nc3cc(OC)ccc23)CN1C(=O)C(Nc1ccc(C#N)cc1)C(C)C)C(=O)O (stereo not shown) [compound 839] | 100
C=CC1CC1(NC(=O)C1CC(Oc2cc(-c3ccccc3)nc3cc(OC)ccc23)CN1C(=O)C(Nc1ccc(F)cc1)C(C)C)C(=O)O (stereo not shown) [compound 840] | 85
C=CC1CC1(NC(=O)C1CC(Oc2cc(-c3ccccc3C)nc3cc(OC)ccc23)CN1C(=O)C(NC(=O)OC(C)(C)C)C(C)(C)C)C(=O)O (stereo not shown) [compound 841] | 240
C=CC1CC1(NC(=O)C1CC(Oc2cc(-c3cccc(C)c3)nc3cc(OC)ccc23)CN1C(=O)C(NC(=O)OC(C)(C)C)C(C)(C)C)C(=O)O (stereo not shown) [compound 842] | 73
C=CC1CC1(NC(=O)C1CC(Oc2cc(-c3ccc(C)cc3)nc3cc(OC)ccc23)CN1C(=O)C(NC(=O)OC(C)(C)C)C(C)(C)C)C(=O)O (stereo not shown) [compound 843] | 53
C=CC1CC1(NC(=O)C1CC(Oc2cc(-c3ccc(OC)cc3)nc3cc(OC)ccc23)CN1C(=O)C(NC(=O)NC(C)(C)C)C(C)(C)C)C(=O)O (stereo not shown) [compound 844] | 6
